# Data taken from ChEMBL document CHEMBL1124041, “Conformational and steric aspects of the inhibition of phenylethanolamine N-methyltransferase by benzylamines” (J Med Chem, 1988).
# How the values were obtained:
# [1] = molecular target: T1, Phenylethanolamine N-methyltransferase (Bos taurus) (UniProt P10938); experiment: Molar pI50 value for phenylethanolamine N-methyl-transferase (PNMT) inhibition
# T1 sequence (whole entry): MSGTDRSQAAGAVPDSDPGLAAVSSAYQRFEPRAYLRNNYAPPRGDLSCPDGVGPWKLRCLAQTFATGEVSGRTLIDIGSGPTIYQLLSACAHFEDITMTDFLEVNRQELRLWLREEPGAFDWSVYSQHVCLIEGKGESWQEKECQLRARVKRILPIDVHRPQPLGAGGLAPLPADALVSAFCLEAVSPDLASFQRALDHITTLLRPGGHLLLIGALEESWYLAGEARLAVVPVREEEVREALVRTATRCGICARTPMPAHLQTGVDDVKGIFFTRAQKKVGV
# [2] = molecular target: T1, Phenylethanolamine N-methyltransferase (Bos taurus); experiment: Acid dissociation constant of phenylethanolamine N-methyl-transferase (PNMT) inhibition
# [3] = molecular target: T2, Phenylethanolamine N-methyltransferase (Bos taurus, UniProt P10938); experiment: Inhibition of phenylethanolamine N-methyl-transferase (PNMT)
# T2 sequence (P10938 whole entry): T1 sequence (whole entry)
pI50 [1] [M],pKa [2],SMILES,Ki [3] [µM]
2.78,9.51,COc1ccc(CN)cc1,
3.17,9.3,NCc1ccc(F)cc1,
,7.35,NCc1cccc(Cl)c1Cl,
,,NC1CC2C[C@@H]1c1ccccc12 (some centres not stated),479
,,c1ccc2c(c1)CC1CC[C@H]2N1,153
,,c1cc2c3c(c1)CC[C@@H]3CCC2,52
,,CC1Cc2ccccc2CN1 (configuration not stated),3
,,c1ccc2c(c1)C1CC[C@H]2N1,> 2000
,,c1ccc2c(c1)C1CC[C@H]2NC1,> 2000
3.82,9.45,Cc1cccc(CN)c1,
,,N[C@@H]1CC2CCC1c1ccccc12 (some centres not stated),> 1000
3.16,9.54,Cc1ccc(CN)cc1,
,9.38,NCc1ccccc1,
4.07,9.14,NCc1ccc(Cl)cc1,

SMILES,pI50 [1] [M],pKa [2],Ki [3] [µM]
NCc1ccc(Br)cc1,4.37,9.13,
NCc1cccc(Cl)c1,5.07,9.01,
NCc1cccc(F)c1,4,9.04,
NCc1cccc(Br)c1,5.17,8.98,
